Here are results for six molecules from publication PMC10451668, “Natural Acetogenins, Chatenaytrienins-1, -2, -3 and -4, Mitochondrial Potential Uncouplers and Autophagy Inducers—Promising Anticancer Agents” (Antioxidants, 2023).

In series [1] the test system is Jurkat cells. In words: Oxidative stress and early apoptosis (MitoSOX Red and annexin V, MitoStress Kit). It is filed as cell-based, human. An excerpt:
Changes in the mitochondrial membrane potential (ΔΨ) in Jurkat cells induced by treatment with the synthesized compounds were detected using MitoSOX Red, a positively charged probe that accumulates rapidly in mitochondria and as such can be used to detect superoxide/ROS production within mitochondria using fluorometry, microscopy, or flow cytometry. Live cells induced a low level of MitoSOX Red fluorescence, while cells with scattered mitochondrial membrane potential caused much higher MitoSOX Red fluorescence. Annexin V is a dye commonly used to detect early signs of apoptosis. […] Thus, using two different dyes, MitoSOX Red and annexin V (CF488A), in the FlowCellect™ MitoStress Kit (FCCH100109), we analyzed the mitochondrial membrane potential dissipation and associated apoptosis in Jurkat cells in response to the synthesized chatenaytrienins.
Therefore, simultaneous detection of mitochondrial superoxide generation (detected by MitoSOX Red membrane-penetrating dye) and expression of phosphatidylserine on the cell surface of apoptotic cells (assessed by binding of annexin V) in the same cell sample provides an accurate evaluation of the ability of the test compound to initiate oxidative stress in cell culture and induce apoptosis.

Another series relates to Jurkat cell lysates. In words: Multiplex analysis of signaling, genotoxicity and early apoptosis proteins (MILLIPLEX MAP, Luminex). The series is classed as cell-based, human. Here is the method: Multiplex analysis was performed according to a previously published method. MILLIPLEX®MAP technology is used to determine the total protein or phosphorylated protein levels of various biological analytes, such as kinases or signaling proteins, including CREB, ERK/MAP, p70 S6, p21, p38, PI3K/AKT/mTOR, JNK (A), p53, MDM2, Bcl-2/Bax, STAT3 and STAT5, Nf-kB, Caspase 3-8-9, JNK, ATM, Chk1, Chk2, and H2AX, in cell lysates using the Luminex® system ((MILLIPLEX Multi-Pathway Magnetic Bead 9-Plex—Cell Signaling Multiplex Assay kit, Merk, Germany). This MILLIPLEX®MAP technology provides an alternative to Western blotting and immunoprecipitation and has several important advantages, such as more accurate measurement of small amounts of protein and the elimination of analyte loss during sample preparation. The multiplex immunoassay (MILLIPLEX 48-680MAG; Merck Millipore, Germany) was performed in Millipore 96-well plates to detect changes in concentrations of phosphorylated and unphosphorylated proteins p53, MDM2, p21, p38, PI3K/AKT/mTOR, Bcl-2/Bax, STAT3 and STAT5, Nf-kB, Caspase 3 -8-9, CREB, ERK/MAP, p70 S6, JNK, ATM, Chk1, Chk2, and H2AX in Jurkat cell lysates.
The levels of phosphorylated and non-phosphorylated proteins were analyzed using MILLIPLEX® map technology to study the analytes in the same sample within a fairly short time. Various deviations in protein concentration due to external factors or detection errors that could affect the results of the experiment were thereby reduced to zero.
The expression of p53, MDM2, p21, p38, PI3K/AKT/mTOR, Bcl-2/Bax, STAT3 and STAT5, Nf-kB, Caspase 3-8-9, CREB, ERK/MAP, p70 S6, JNK, ATM, Chk1, Chk2, and H2AX proteins in lysate samples of Jurkat tumor cells were studied using Luminex technology with the MILLIPLEX® MAP 9-Plex Multi-Pathway 9-plex Magnetic Bead Kit. This bead-based assay involved color-coded fluorescent particles pre-coated with specific antibodies targeting 9 major kinases in signaling pathways.

The subject of the next series is T24 bladder cancer cells. Also on record: method as in PMID 16154156. Particulars: cited from earlier work.
In series [2] the test system is Jurkat cells. The series is described as follows: Detection of mitodamage: mitochondrial membrane potential and apoptosis (MitoSense Red, annexin V, 7-AAD). It is filed as cell-based, human. Particulars: compound at CC50, 4 h; for cells in late apoptosis (stained with 7-AAD): Jurkat; for Jurkat tumor cells with the Δψ dissipation phenomenon: MitoSense Red. An excerpt:
The use of reagents MitoSense Red, annexin V, and 7-AAD in the Millipore FlowCellect™ MitoDamage Kit allowed us to gain information on early, mid, and late apoptosis with one simple assay. […] After this time, the cells were dissociated using an accutase solution, stained, and analyzed using the NovoCyte Penteon Flow Cytometer System (Agilent, 5301 Stevens Creek Blvd., Santa Clara, CA, USA), according to the manufacturer’s protocols for the FlowCellect™ MitoDamage Kit and FlowCellect™ Oxidative Stress Characterization Kit (Merck).
Detection of mitochondrial potential dissipation using MitoSense Red, annexin V, and 7-AAD provided a simultaneous measurement of three important parameters of the cell state within the same cell sample: the state of the mitochondrial potential (Δψ), detected by the membrane-penetrating MitoSense Red dye; the expression of phosphatidylserine on the cell surface of apoptotic cells, assessed by the binding of annexin V to externalized phosphatidylserine; and the binding of 7-AAD to DNA in cells in the late stages of apoptosis. Multiparametric evaluation of these indicators of cell viability made it possible to determine the correlation and relationship between oxidation dissipation and phosphorylation with apoptosis.

The subject of another series is Jurkat tumor cell line. The series is described as follows: Assessment of cytochrome c loss (FlowCellect Cytochrome c Kit). The series is classed as cell-based, human. The conditions noted are these: compound at CC50, incubation 3 h, anti-cytochrome c-FITC. As for the experimental part: Quantification of cytochrome c release from mitochondria in apoptotic cells was presented to detect the mitochondrial pathway of apoptosis in cells using flow cytometry with the FlowCellect™ Cytochrome c Kit (FCCH100110). For this, cells were treated with FITC-conjugated antibodies against cytochrome c and control anti-IgG1-FITC, together with the use of an optimized fixation procedure, permeabilization, and blocking buffer (Luminex®, USA). […] Jurkat cells were incubated for 4 h with the synthesized substances at a concentration corresponding to their 24-h CC50 in a culture plate and assessed using the NovoCyte Penteon Flow Cytometer System (Agilent, 5301 Stevens Creek Blvd., Santa Clara, CA, USA). The obtained data were processed using NovoExpress® software (ACEA).

In a further series the test system is HL60. The series is described as follows: Cytotoxicity assay (7-AAD viability, flow cytometry). The series is classed as cell-based, human. Particulars: ± standard error of the mean, 95% CI in parenthesis. An excerpt:
(§1) Cells, including Jurkat E6.1 (human leukemic T cell lymphoblasts, catalogue no. 88042803), K562 (human chronic myelogenous leukemia cells, catalogue no. 89121407), U937 (human histiocytic lymphoma cells, catalogue no. 85011440), HL60 (human promyelocytic leukemia cells, catalog no. 98070106), HEK293 (human embryonic kidney cells with adenovirus, catalog no. 85120602), and human lung fibroblasts Ce (catalogue no. 90011883), were purchased from the European Collection of Authenticated Cell Cultures (UK Health Security Agency) and cultured according to standard protocols using sterile techniques. […] Cells were maintained in RPMI 1640 (Jurkat, K562, U937, and HL60) and DME M (fibroblast and HEK293) (Gibco) supplemented with […] glutamine, 10% FBS (Sigma), and 100 units/mL penicillin-streptomycin (Sigma). All types of cells were grown under an atmosphere of 5% CO2 at 37 °C. The cells were subcultured at 2–3-day intervals. Cells were then seeded in 24-well plates at 5 × 10^4 cells per well and incubated overnight. Jurkat, K562, U937, HL60, HEK293, and fibroblast cells were subcultured at 2-day intervals with a seeding density of 1 × 10^5 cells per well in 24-well plates in RPMI with 10% FBS.
(§2) Viability (live/dead) assessment was performed by staining cells with 7-AAD (7-aminoactinomycin D; Biolegend). After treatment, cells were harvested, washed 1–2 times with phosphate-buffered saline (PBS), and centrifuged at 400× g for 5 min. Cell pellets were resuspended in 200 µL of flow cytometry staining buffer (PBS without Ca^2+ and Mg^2+, 2.5% FBS) and stained with […] of 7-AAD staining solution for 15 min at room temperature in the dark. Samples were assessed using the NovoCyte Penteon Flow Cytometer System (Agilent, 5301 Stevens Creek Blvd., Santa Clara, CA, USA). Detection of 7-AAD emission was collected through a 675/30 nm filter in the FL4 channel.

The next series concerns Hek293. The series is described as above. It is filed as cell-based, human. The conditions noted are these: Hek293, conditionally normal line; ± standard error of the mean, 95% CI in parenthesis.
Text: as §1, §2

A further series deals with Jurkat. Described as above. It is filed as cell-based, human. The conditions noted are these: ± standard error of the mean, 95% CI in parenthesis.
Text: as §1, §2

For another series, the system named is K562. The description is as above. The series is classed as cell-based, human. The conditions noted are these: ± standard error of the mean, 95% CI in parenthesis.
Text: as §1, §2

Another series deals with U937. The series is described as above. It is filed as cell-based, human. Particulars: ± standard error of the mean, 95% CI in parenthesis.
Text: as §1, §2

In series [3] the test system is Fibroblasts (PCS-201-018). The description is as above. It is filed as cell-based, human. Particulars: normal fibroblasts; ± standard error of the mean, 95% CI in parenthesis.
The test system of series [4] is Jurkat cells. In words: Assessment of autophagy (anti-LC3/FITC, flow cytometry). It is filed as cell-based, human. The conditions noted are these: 0.5 CC50, 48 h. The source says: Autophagy is involved in various physiological processes and its changes are associated with the pathogenesis of diseases such as neurodegenerative diseases, cardiovascular complications, cancer, and infectious diseases, as well as with physiological processes such as innate and specific immunity, pathogen clearance, lymphocyte selection, antigen presentation, and production of immunoglobulins. Therefore, the determination of LC3 protein inside autophagosomes without the cytosolic form of LC3-I at the stage of selective cell permeability was measured using flow cytometry. Thus, using the FlowCellect™ LC3-GFP Reporter Autophagy Assay Kit (FCCH100170 and FCCH100181), flow cytometry allowed for a rapid assay that could be combined with other phenotypic and functional markers to characterize different cell populations.
Canonical autophagy is associated with the conversion of LC3 protein (an autophagosome marker) from the cytoplasmic form of LC3I to the lipid-bound form of LC3II, which is associated with the membranes of maturing autophagosomes. The autophagy process can be conveniently classified into several stages. First, induction and translocation of the cytoplasmic LC3 protein occur due to the influence of external stimuli (adverse environmental influences)—the process is initiated by external/internal stimuli (for example, nutrient depletion or hypoxia). Then, the formation of autophagosomes begins, which are double-membrane vesicles that include the LC3 protein. This protein regulates the fusion of autophagosomes and lysosomes. It exists in two fractions—cytoplasmic LC3-I and LC3-II, isolated in the autophagosomal membrane. The LC3-II protein fraction was specified in our work, as its detection is a reliable indicator of the processes of autophagy in the cell.

Take `CCCCCC[C@H]1C(=O)O[C@H](C)[C@H](NC(=O)c2cccc(NC=O)c2O)C(=O)O[C@@H](C)[C@@H]1OC(=O)CC(C)C` [antimycin, reference compound]: in the series on Jurkat cells [1] (antimycin 100 µM, 4 h), the “intact (live) cells in the sample” value is listed as 12.65%.

For the molecule `CCCCCCCCCCCC/C=C\CC/C=C\CCCCCCCCCCCCC1=C[C@H](C)OC1=O` [muricadienin, reference compound], the “expression of caspase-8” value in the series on Jurkat cell lysates (6 h and 12 h) is “did not significantly affect”. In addition, in the series with Jurkat cell lysates (after 12 h of incubation, versus control), the “concentration of p53” value is “significantly increased”. In addition, in the series with Jurkat cell lysates (compound at CC50, 4 h, MFI versus intact cells), the “levels of all types of kinase proteins (CREB, JNK, NFkB, p38, ERK1/2, Akt, p70S6K, STAT3, STAT5)” value is “most pronouncedly reduced”. The “cleaved caspase-9” value with Jurkat cell lysates (especially after 12 h, level exceeded control) is listed as “promoted the accumulation”. Moreover, in the series with Jurkat cell lysates (first 6 h, within 12 h began to increase again, not reaching control), the “level of BAD protein” value is recorded as “decreased”.

For the molecule `CCCCCC[C@H](O)CCC[C@H](O)[C@H]1CC[C@H]([C@H]2CC[C@H]([C@H](O)CCCCCCCCCCCCC3=C[C@H](C)OC3=O)O2)O1` [squamocin], in the series with T24 bladder cancer cells, the “effect on cell cycle” value is recorded as “blocked cells in the G1 phase”.

Consider `CN[C@@H]1C[C@H]2O[C@@](C)([C@@H]1OC)n1c3ccccc3c3c4c(c5c6ccccc6n2c5c31)C(=O)NC4` [staurosporine, reference compound], for which the “cells in late apoptosis (stained with 7-AAD)” value (“cells in late apoptosis” below) in the series with Jurkat cells [2] amounted to 2.48%. Moreover, in the series with Jurkat tumor cell line, the “cells with cytochrome c released into the cytoplasm (Negative gate)” value (“cells … (Negative gate)” for short) came out at 80.23%.

Take chatenaytrienin-3 [compound 3]: the half-maximal cytotoxic concentration (CC50) was 140 ± 40 nM in the series with HL60; 780 ± 40 nM in the series with Hek293; 150 ± 40 nM in the series with Jurkat; 90 ± 10 nM with K562; 180 ± 20 nM in the series with U937; 830 ± 50 nM in [3]. The “cells in late apoptosis” value with Jurkat cells [2] stood at 17.01%. For the same molecule, the “Jurkat tumor cells with the Δψ dissipation phenomenon” value with Jurkat cells [2] was 62.42%. Further, the “cells … (Negative gate)” value with Jurkat tumor cell line was found to be 41.99%. Also, in the series on Jurkat cells [1] (compound at CC50, 4 h), the “intact (live) cells in the sample” value is 9.9%. For the same molecule, the “cells with autophagy (gate M3-2)” value in the series on Jurkat cells [4] is listed as 91.50%.

As to chatenaytrienin-4 [compound 4], the CC50 in the series with HL60 was found to be 190 ± 20 nM; with Hek293, 530 ± 10 nM; in the series with Jurkat it was 160 ± 10 nM; with K562, 130 ± 40 nM; in the series with U937, 130 ± 50 nM; in [3], 980 ± 40 nM. Moreover, the “cells in late apoptosis” value in the series on Jurkat cells [2] is 1.88%. Further, the “Jurkat tumor cells with the Δψ dissipation phenomenon” value with Jurkat cells [2] amounted to 53.51%. In addition, the “cells … (Negative gate)” value in the series with Jurkat tumor cell line was 42.10%. Also, the “cells demonstrating oxidative stress along with the marker of early apoptosis, annexin” value with Jurkat cells [1] (compound at CC50, 4 h, MitoSOX Red and annexin V) was determined as 26.8%. Also, the “cells with autophagy (gate M3-2)” value in the series on Jurkat cells [4] came out at 56.09%.
